Read-outs that look alike come from different tables or passages of the source.
Tests used:
[1] = system: cellular proliferation; conditions: literature; cited from earlier work
[2] = system: PANC-1 human pancreatic adenocarcinoma cells; assay: Immunofluorescent detection of effects on the microtubule matrix (anti-alpha-tubulin); assay type: cell-based; conditions: PANC-1 cells, 100 nM, overnight
Protocol: Dictyostatin-1 was evaluated as to its effects on the microtubule network of cells using anti-alpha-tubulin monoclonal antibodies.
PANC-1 human pancreatic adenocarcinoma cells were maintained in tissue culture media (TCM=Roswell Park Memorial Institute (RPMI) medium 1640 supplemented with 100 U/ml penicillin, […] streptomycin, 60 mg/ml 1-glutamine, 18 mM HEPES, 0.05 mg/ml gentamicin and 10% fetal bovine serum) and cultured in plastic culture flasks at 37° C. in humidified air containing 5% CO2. Stock cultures of PANC-1 cells were subcultured 1:10 every 3 to 4 days. On day 1, 1.25×10^5 PANC-1 cells were sub-cultured in TCM overnight at 37° C. in 5% CO2 on 22 mm^2 coverslips in 6-well microtiter plates. On day 2, TCM was removed and replaced with various concentrations of dictyostatin-1, or Taxol, in TCM or TCM without drug (control) and incubated overnight at 37° C. in 5% CO2. On day 3, TCM was removed and cells attached to coverslips were fixed with a 3.7% formaldehyde solution in Dulbecco's PBS for 10 minutes at room temperature. Cells were permeabilized with a 2% Triton X-100 solution, 2 ml per well, for 5 minutes at room temperature and washed twice in Dulbecco's PBS prior to staining. […]

[3] = system: A549 human adenocarcinoma; assay: Cytotoxicity, MTT assay, A549; assay type: cell-based; conditions: read-out: IC50 (Std dev) A549
Protocol: (§1) The cytotoxicity of dictyostatin-1 for various Taxol resistant and sensitive cell lines was compared to that of Taxol. The cell lines used were A549 human adenocarcinoma, MCF-7 human breast carcinoma, MCF-7ADR multi-drug resistant (Taxol resistant) human breast carcinoma, MES-SA human uterine carcinoma and MES-SA/DX5 Taxol resistant uterine carcinoma. All cell lines were maintained in Roswell Park Memorial Institute (RPMI) medium 1640 supplemented with 100 U/ml penicillin, […] streptomycin, 60 mg/ml 1-glutamine, 18 mM HEPES, 0.05 mg/ml gentamicin (Life Technologies, Gaithersburg, Md.) and 10% fetal bovine serum and cultured in plastic tissue culture flasks at 37° C. in humidified air containing 5% CO2. […] To spectrophotometrically quantitate formation of reduced formazan, plates are centrifuged (500×g, 10 minutes), culture fluids removed by aspiration, and 200 μl of acidified isopropanol (2 ml concentrated HC1/liter isopropanol) added per well. The absorbance of the resulting solutions is measured in a plate reader (Tecan Spectra SLT; TECAN U.S., Research Triangle Park, N.C.) at 570 nm and a 650 nm reference filter. […] The two standard drug controls (indicated above) are included in each assay as a check to monitor the drug sensitivity of each of the cell lines and IC50 values are determined for each drug-cell combination.

[4] = system: MCF-7ADR multi-drug resistant (Taxol resistant) human breast carcinoma; assay: Cytotoxicity, MTT assay, MCF-7/ADR; assay type: cell-based; conditions: for IC50: Homo sapiens, NCI/ADR-RES, read-out: IC50 (Std dev) MCF-7/ADR; for Resistance, MCF-7/ADR relative to MCF-7: ratio of IC50 values, resistant vs sensitive line; for resistance of MCF-7ADR cells: resistant vs Taxol-sensitive counterpart
Protocol: (§2) The cytotoxicity of dictyostatin-1 for various Taxol resistant and sensitive cell lines was compared to that of Taxol. The cell lines used were A549 human adenocarcinoma, MCF-7 human breast carcinoma, MCF-7ADR multi-drug resistant (Taxol resistant) human breast carcinoma, MES-SA human uterine carcinoma and MES-SA/DX5 Taxol resistant uterine carcinoma. All cell lines were maintained in Roswell Park Memorial Institute (RPMI) medium 1640 supplemented with 100 U/ml penicillin, […] streptomycin, 60 mg/ml 1-glutamine, 18 mM HEPES, 0.05 mg/ml gentamicin (Life Technologies, Gaithersburg, Md.) and 10% fetal bovine serum and cultured in plastic tissue culture flasks at 37° C. in humidified air containing 5% CO2. Stock cultures of cells were subcultured 1:10 every 3 to 4 days. To assess the antiproliferative effects of agents against the cells, 200 μl cultures (96-well tissue culture plates, Nunc, Denmark) were established at 1×10^5 cells/mL in TCM or TCM containing the test agent at 0.03-5.0 μg/ml. After 72 -h exposures, the effects of dictyostatin-1 and Taxol on cell proliferation were quantitated and IC50 values determined as follows: 75 μl of warm growth media containing 5 mg/ml 3-[4,5-dimethylthiazol-2-yl]-2,5-diphenyltetrazolium bromide (MTT) (M. C. Alley et al. (1988) Cancer Res. 48:589) was added to each well, cultures returned to the incubator, and left undisturbed for 3 hours. To spectrophotometrically quantitate formation of reduced formazan, plates are centrifuged (500×g, 10 minutes), culture fluids removed by aspiration, and 200 μl of acidified isopropanol (2 ml concentrated HC1/liter isopropanol) added per well. The absorbance of the resulting solutions is measured in a plate reader (Tecan Spectra SLT; TECAN U.S., Research Triangle Park, N.C.) at 570 nm and a 650 nm reference filter. The absorbance of tests wells is divided by the absorbance of drug-free wells, and the concentration of agent that results in 50% of the absorbance of untreated cultures (IC50) is determined by linear regression of logit-transformed data (D. J. Finney, Statistical Method in Biological Assay, Third Ed., pp.316-348, Charles Griffin Co., London, 1978). A linear relationship between tumor cell number and formazan production has been routinely observed over the range of cell densities observed in these experiments. The two standard drug controls (indicated above) are included in each assay as a check to monitor the drug sensitivity of each of the cell lines and IC50 values are determined for each drug-cell combination.

[5] = system: PANC-1 human pancreatic adenoma cells; assay: Cell cycle progression of PANC-1 cells (propidium iodide flow cytometry); assay type: cell-based; conditions: 100 nM, 24 hours; for percentage of cells in S phase: untreated control 5.8%; for percentage of cells in G2/M phase: untreated control 34.4%; for percentage of cells comprising the G1 population: untreated control 59.8%
Protocol: Cell cycle studies were initiated in order to pinpoint a specific phase within the cell cycle in which dictyostatin-1 was exerting its antiproliferative effect. PANC-1 human pancreatic adenoma cells were used as cell cycle targets to compare the effects on perturbation of the cell cycle of dictyostatin-1 to the known mitotic spindle inhibitor […]. Cell cycle analyses were performed as follows: PANC-1 cells were incubated at 37° C. in 5% CO2 in air in the presence or absence of varying concentrations of dictyostatin-1 or Taxol for 24 hours.
Cells were harvested, fixed in ethanol and stained with 0.02 mg/ml of propidium iodide (P.I.) together with 0.1 mg/ml of RNAse A. This procedure permeabilizes cells and allows entry of P.I. to stain DNA (propidium iodide also stains double stranded RNA, so RNAse is included in the preparation to exclude this possibility). Stained preparations were analyzed on a Coulter EPICS ELITE with 488 nm excitation. Fluorescence measurements and resulting DNA histograms were collected from at least 3,000 P.I. stained cells at an emission wavelength of 690 nm. Raw histogram data was further analyzed using a cell cycle analysis program (Multicycle, Phoenix Flow Systems).

[6] = system: MES-SA/DX5 Taxol resistant uterine carcinoma; assay: Cytotoxicity, MTT assay, MES-SA/DX5; assay type: cell-based, human; conditions: for IC50: Homo sapiens, read-out: IC50 (Std dev) MES-SA/DX5; for Resistance, MES-SA/DX5 relative to MES-SA: ratio of IC50 values, resistant vs sensitive line; for resistance of MES-SA/DX5 cells: resistant vs Taxol-sensitive counterpart
Protocol: as §2

[7] = system: MES-SA human uterine carcinoma; assay: Cytotoxicity, MTT assay, MES-SA; assay type: cell-based; conditions: read-out: IC50 (Std dev) MES-SA
Protocol: as §1

[8] = system: MCF-7 human breast carcinoma; assay: Cytotoxicity, MTT assay, MCF-7; assay type: cell-based; conditions: read-out: IC50 (Std dev) MCF-7
Protocol: as §1

[9] = system: purified bovine brain tubulin; assay: Polymerization of purified tubulin (optical density at 350 nm); assay type: biochemical; conditions: 10 μM
Protocol: Polymerization of purified bovine brain tubulin (Cytoskeleton Inc., Denver, Co.) was followed by changes in the optical density of tubulin solutions at 350 nm in a Hitachi U-3010 spectrophotometer equipped with a SPR-10 electronic thermostatted cell holder. Stock solutions of tubulin were diluted on ice in G-PEM buffer (1 mM GTP, 80 mM PIPES (piperazine-N,N′-bis(2-ethanesulfonic acid]sesquisodium salt), 1 mM EGTA (ethylene glycol-bis(b-amine ethyl ether) N,N,N,N′-tetra acetic acid), 0.5 mM magnesium chloride; pH 6.8) to a final concentration of 1 mg/ml. The instrument was zeroed on this solution at 4° C. Dictyostatin-1, was then added to the tubulin to a final concentration of 10 μM and quickly mixed. The polymerization was monitored by observing light scattering changes in optical density at 350 nm using the spectrophotometer. The temperature was varied for a time period of […] beginning at 4° C. for 1 minute, then linearly ramping to 35° C. over 30 minutes, with a hold of one minute at 35° C., then linearly decreasing to 4° C. over 15 minutes, with this temperature being maintained for an additional 15 minutes. Absorbance was measured and recorded over the entire time period.

| SMILES | IC50 values, inhibition of cellular proliferation [1] | effect on microtubule network (bundling) [2] | Resistance, MCF-7/ADR relative to MCF-7 [4] | resistance of MCF-7ADR cells [4] | percentage of cells in S phase [5] | percentage of cells in G2/M phase [5] | percentage of cells comprising the G1 population [5] | Resistance, MES-SA/DX5 relative to MES-SA [6] | resistance of MES-SA/DX5 cells [6] | further results |
| --- | --- | --- | --- | --- | --- | --- | --- | --- | --- | --- |
| C=C1CC(C)C[C@@H]2CC=C[C@@H](C/C=C\C(=O)O[C@@H]3C[C@H](O[C@@H]3/C=C/[C@H]3CC(C)=CCO3)[C@H](O)C(O)C1)O2 (stereo partly drawn) [isolaulimalide] | low micromolar range | – | – | – | – | – | – | – | – | – |
| CC(=O)O[C@H]1C(=O)[C@@]2(C)[C@H]([C@H](OC(=O)c3ccccc3)[C@]3(O)C[C@H](OC(=O)[C@H](O)[C@@H](NC(=O)c4ccccc4)c4ccccc4)C(C)=C1C3(C)C)[C@]1(OC(C)=O)CO[C@@H]1C[C@@H]2O [Taxol] | – | characteristic formation of microtubular “bundles” but also a substantial amount of “non-bundled” microtubular material still remained in the cytoplasm | 1332× | 1332 fold | 27% | 47% | 26% | 501× | 501 fold | IC50 ([3]; A549, 72-h exposure, MTT): 5.13 nM; IC50 ([4]; 72-h exposure, MTT): 3330 nM; IC50 ([6]; MES-SA/Dx5, 72-h exposure, MTT): 1650 nM; IC50 ([7]; 72-h exposure, MTT): 3.3 nM; IC50 ([8]; MCF7, 72-h exposure, MTT): 2.5 nM |
| C=C/C=C\C(C)C1OC(=O)/C=C\C=C\C(C)C(O)CC(O)/C=C\C(C)C(O)C(C)CC(C)CCC(O)C1C (stereo not drawn) [Dictyostatin-1] | – | extensive microtubule bundling resulting in almost complete depletion of non-bundled microtubular material in the cytoplasm | 13× | 13 fold | 30% | 35% | 36% | 3× | 3 fold | IC50 ([3]; A549, 72 h): 0.95 nM; IC50 ([4]; 72 h): 20 nM; IC50 ([6]; MES-SA/Dx5, 72 h): 11 nM; IC50 ([7]; 72 h): 4.1 nM; IC50 ([8]; MCF7, 72 h): 1.5 nM; stability of polymerized tubulin on cooling ([9]; temperature decreased from 35° C. to 4° C.): did not substantially depolymerize upon reduction of the temperature; induction of tubulin polymerization ([9]; tubulin 1 mg/ml, temperature ramp 4° C. to 35° C.): induced tubulin polymerization with a maximum polymerization level reached at 35 °C |
| C=C1C[C@H](C)C[C@@H]2CC=C[C@@H](C/C=C\C(=O)O[C@H]([C@@H](O)/C=C/[C@@H]3CC(C)=CCO3)C[C@@H]3O[C@H]3[C@@H](O)C1)O2 [Laulimalide] | low nanomolar range | – | – | – | – | – | – | – | – | – |
